The source made the active and inactive calls. The rule behind the calls is not given here.
Test system: CCRIS mutagenicity, Ames/micronucleus/aberration tests
Experiment: CCRIS mutagenicity studies
[1] = Test System: AMES SALMONELLA TYPHIMURIUM, Strain/Indicator: TA98, Metabolic Activation: NONE, Method: STANDARD PLATE
[2] = Test System: AMES SALMONELLA TYPHIMURIUM, Strain/Indicator: TA100, Metabolic Activation: NONE, Method: STANDARD PLATE

## Oc1ccc(O)cc1
End Point: IN VITRO CHROMOSOMAL ABERRATIONS, Test System: CHINESE HAMSTER OVARY CELLS, Metabolic Activation: NONE
  mutagenic call: inactive; negative
End Point: IN VITRO CHROMOSOMAL ABERRATIONS, Test System: CHINESE HAMSTER OVARY CELLS, Metabolic Activation: RAT, LIVER, S-9, AROCLOR 1254
  mutagenic call: active; positive
End Point: IN VITRO CHROMOSOMAL ABERRATIONS, Test System: CHINESE HAMSTER V79 CELLS, Metabolic Activation: NONE
  mutagenic call: active; positive; effective at higher doses at ph 7.4
End Point: IN VITRO CHROMOSOMAL ABERRATIONS, Test System: CHL/IU CELLS, Metabolic Activation: NONE
  mutagenic call: active; positive (structural changes)
End Point: IN VITRO CHROMOSOMAL ABERRATIONS, Test System: HUMAN (MALE) PERIPHERAL BLOOD LYMPHOCYTES, Metabolic Activation: NONE
  mutagenic call: inactive; negative
End Point: IN VITRO CHROMOSOMAL ABERRATIONS, Test System: HUMAN (MALE) PERIPHERAL BLOOD LYMPHOCYTES, Metabolic Activation: RAT, LIVER, S-9, AROCLOR 1254
  mutagenic call: inactive; negative
End Point: IN VITRO CHROMOSOMAL ABERRATIONS, Test System: HUMAN PERIPHERAL LYMPHOCYTES, Metabolic Activation: NONE
  mutagenic call: active; positive (ploidy)
End Point: IN VITRO CHROMOSOMAL ABERRATIONS, Test System: HUMAN PERIPHERAL LYMPHOCYTES, Metabolic Activation: NONE, Method: FISH
  mutagenic call: active; positive (ploidy); greater effects on certain chromosomes
End Point: IN VITRO CHROMOSOMAL ABERRATIONS, Test System: HUMAN PERIPHERAL LYMPHOCYTES, Metabolic Activation: NONE, Method: FISH - DUAL COLOR PROBES
  mutagenic call: active; positive (structural and ploidy changes)
End Point: IN VITRO CHROMOSOMAL ABERRATIONS, Test System: HUMAN PERIPHERAL LYMPHOCYTES, Metabolic Activation: NONE, Method: FISH - SINGLE COLOR
  mutagenic call: active; positive (ploidy)
End Point: IN VITRO CHROMOSOMAL ABERRATIONS, Test System: HUMAN PERIPHERAL LYMPHOCYTES, Metabolic Activation: NONE, Method: FISH- DUAL COLOR PROBES
  mutagenic call: inactive; negative for translocations
End Point: IN VITRO CHROMOSOMAL ABERRATIONS, Test System: V79, Metabolic Activation: RAT, LIVER, S-9, AROCLOR 1254
  mutagenic call: active; positive; effective at higher doses at ph 7.4
End Point: IN VITRO MICRONUCLEUS, Test System: CHL/IU CELLS, Metabolic Activation: NONE
  mutagenic call: active; positive
End Point: IN VITRO MICRONUCLEUS, Test System: HAMSTER V79 CELLS, Metabolic Activation: NONE
  mutagenic call: active; positive
End Point: IN VITRO MICRONUCLEUS, Test System: HUMAN LYMPHOCYTES, Metabolic Activation: NONE
  mutagenic call: active; positive; individuals with gstm1 null genotype more affected than those with gst
End Point: In vitro chromosomal aberrations, Test System: Chinese hamster lung (CHL/IU) cells, Metabolic Activation: Rat, Liver, S9, Phenobarbital and 5,6-benzoflavone
  mutagenic call: active; positive (structural changes and ploidy). toxic at 0.12 mg/ml.
Test System: AMES SALMONELLA TYPHIMURIUM, Strain/Indicator: TA97, Metabolic Activation: NONE, Method: STANDARD PLATE
  mutagenic call: inactive; negative
Test System: AMES SALMONELLA TYPHIMURIUM, Strain/Indicator: TA97, Metabolic Activation: RAT, LIVER, S-9, PCB, Method: STANDARD PLATE
  mutagenic call: inactive; negative
Test System: AMES SALMONELLA TYPHIMURIUM, Strain/Indicator: TA97, Metabolic Activation: RAT, LIVER, S-9, PHENOBARBITAL, Method: PREINCUBATION
  mutagenic call: active; positive
Test System: AMES SALMONELLA TYPHIMURIUM, Strain/Indicator: TA98, Metabolic Activation: NONE, Method: PREINCUBATION
  mutagenic call: active; positive
[1]
  mutagenic call: inactive; negative
Test System: AMES SALMONELLA TYPHIMURIUM, Strain/Indicator: TA98, Metabolic Activation: RAT, LIVER, S-9, PCB, Method: STANDARD PLATE
  mutagenic call: inactive; negative
Test System: AMES SALMONELLA TYPHIMURIUM, Strain/Indicator: TA98, Metabolic Activation: RAT, LIVER, S-9, PHENOBARBITAL, Method: PREINCUBATION
  mutagenic call: active; positive
Test System: AMES SALMONELLA TYPHIMURIUM, Strain/Indicator: TA100, Metabolic Activation: NONE, Method: PREINCUBATION
  mutagenic call: active; positive
[2]
  mutagenic call: inactive; negative
Test System: AMES SALMONELLA TYPHIMURIUM, Strain/Indicator: TA100, Metabolic Activation: RAT, LIVER, S-9, PCB, Method: STANDARD PLATE
  mutagenic call: inactive; negative
Test System: AMES SALMONELLA TYPHIMURIUM, Strain/Indicator: TA100, Metabolic Activation: RAT, LIVER, S-9, PHENOBARBITAL, Method: PREINCUBATION
  mutagenic call: active; positive
Test System: AMES SALMONELLA TYPHIMURIUM, Strain/Indicator: TA102, Metabolic Activation: NONE, Method: STANDARD PLATE
  mutagenic call: active; positive
Test System: AMES SALMONELLA TYPHIMURIUM, Strain/Indicator: TA104, Metabolic Activation: NONE, Method: PREINCUBATION
  mutagenic call: active; positive
Test System: UDS SHE CELLS, Strain/Indicator: THY INCORP, Metabolic Activation: NONE, Method: LIQUID SCINTILLATION COUNTING
  mutagenic call: active; positive

## COc1cc(C[C@@H](CO)[C@H](CO)Cc2ccc(O)c(OC)c2)ccc1O
Test System: CHINESE HAMSTER V79 CELLS, Strain/Indicator: V79 CELLS (HPRT)/6-THIOGUANINE, Metabolic Activation: NONE, Method: SUSPENSION/PLATE
  mutagenic call: inactive; negative
Test System: CHINESE HAMSTER V-79, Strain/Indicator: V-79 (HPRT)/6-THIOGUANINE, Metabolic Activation: NONE
  mutagenic call: inactive; negative

## CCCCON=O
Test System: AMES SALMONELLA TYPHIMURIUM, Strain/Indicator: TA98, Metabolic Activation: HAMSTER, LIVER, S-9, AROCLOR 1254, Method: STANDARD PLATE
  mutagenic call: inactive; negative
[1]
  mutagenic call: inactive; negative
Test System: AMES SALMONELLA TYPHIMURIUM, Strain/Indicator: TA98, Metabolic Activation: RAT, LIVER, S-9, AROCLOR 1254, Method: STANDARD PLATE
  mutagenic call: inactive; negative
Test System: AMES SALMONELLA TYPHIMURIUM, Strain/Indicator: TA98, Metabolic Activation: S-9, Method: STANDARD PLATE
  mutagenic call: active; positive
Test System: AMES SALMONELLA TYPHIMURIUM, Strain/Indicator: TA100, Metabolic Activation: HAMSTER, LIVER, S-9, AROCLOR 1254, Method: STANDARD PLATE
  mutagenic call: inactive; negative
[2]
  mutagenic call: active; positive
Test System: AMES SALMONELLA TYPHIMURIUM, Strain/Indicator: TA100, Metabolic Activation: RAT, LIVER, S-9, AROCLOR 1254, Method: STANDARD PLATE
  mutagenic call: inactive; negative
Test System: AMES SALMONELLA TYPHIMURIUM, Strain/Indicator: TA100, Metabolic Activation: S-9, Method: STANDARD PLATE
  mutagenic call: active; positive
Test System: AMES SALMONELLA TYPHIMURIUM, Strain/Indicator: TA1535, Metabolic Activation: HAMSTER, LIVER, S-9, AROCLOR 1254, Method: STANDARD PLATE
  mutagenic call: active; positive
Test System: AMES SALMONELLA TYPHIMURIUM, Strain/Indicator: TA1535, Metabolic Activation: NONE, Method: STANDARD PLATE
  mutagenic call: active; positive
Test System: AMES SALMONELLA TYPHIMURIUM, Strain/Indicator: TA1535, Metabolic Activation: RAT, LIVER, S-9, AROCLOR 1254, Method: STANDARD PLATE
  mutagenic call: active; positive
Test System: AMES SALMONELLA TYPHIMURIUM, Strain/Indicator: TA1537, Metabolic Activation: HAMSTER, LIVER, S-9, AROCLOR 1254, Method: STANDARD PLATE
  mutagenic call: inactive; negative
Test System: AMES SALMONELLA TYPHIMURIUM, Strain/Indicator: TA1537, Metabolic Activation: NONE, Method: STANDARD PLATE
  mutagenic call: inactive; negative
Test System: AMES SALMONELLA TYPHIMURIUM, Strain/Indicator: TA1537, Metabolic Activation: RAT, LIVER, S-9, AROCLOR 1254, Method: STANDARD PLATE
  mutagenic call: inactive; negative
Test System: MOUSE LYMPHOMA, Strain/Indicator: L5178Y (TK+/TK-), Metabolic Activation: NONE, Method: SUSPENSION/PLATE
  mutagenic call: active; positive. reevaluation of results: positive
Test System: MOUSE LYMPHOMA, Strain/Indicator: L5178Y (TK+/TK-), Metabolic Activation: RAT, LIVER, S-9, AROCLOR 1254, Method: SUSPENSION/PLATE
  mutagenic call: active; positive. reevaluation of results: positive

## Nc1ccc2c(n1)[nH]c1ccccc12
Test System: AMES SALMONELLA TYPHIMURIUM, Strain/Indicator: TA98, Metabolic Activation: MONKEY, LIVER, S-9, Method: PREINCUBATION
  mutagenic call: active; positive
Test System: AMES SALMONELLA TYPHIMURIUM, Strain/Indicator: TA98, Metabolic Activation: RAT, LIVER, S-9, AROCLOR 1254, Method: PREINCUBATION
  mutagenic call: active; positive
Test System: AMES SALMONELLA TYPHIMURIUM, Strain/Indicator: TA100, Metabolic Activation: RAT, LIVER, S-9, AROCLOR 1254, Method: PREINCUBATION
  mutagenic call: active; positive
Test System: AMES SALMONELLA TYPHIMURIUM, Strain/Indicator: YG1019, Metabolic Activation: RAT LIVER S-9, AROCLOR, Method: PREINCUBATION
  mutagenic call: active; positive
